Tests used:
Phaedon cochleariae = Phaedon cochleariae spray test; conditions: larvae on Chinese cabbage leaf discs, after 7 days
[1] = log P determination by HPLC on reversed-phase column (C18), EEC Directive 79/831 Annex V.A8, acidic (formic acid); type: physicochemical; conditions: HPLC method a), acetonitrile/water with formic acid
Method: ^1 The stated mass is the peak of the isotope pattern of the [M+H]^+ ion of the highest intensity; if the [M-H]^- ion was detected, the stated mass is identified with ^2. ^2 The stated mass is the peak of the isotope pattern of the [M-H]^- ion of the highest intensity. ^a) Note regarding the determination of the log P values and mass detection: The determination of the given log P values was carried out in accordance with EEC Directive 79/831 Annex V.A8 by HPLC (High Performance Liquid Chromatography) on a reversed-phase column (C18). […] Mass detection is effected by means of an […] system. ^b) Note regarding the determination of the retention time and mass detection: The stated retention times were determined on a reversed-phase column (C18) Shimadzu LCMS 2020; 50*3.0 Shimadzu shim-pack XR-ODS 2.2 micron; mobile phase A: water (0.05% TFA); mobile phase B: acetonitrile; linear gradient from 5% acetonitrile to 95% acetonitrile in 6.00 min, then 95% acetonitrile for a further 1.1 min; oven temperature 40° C.; flow rate: 1.0 ml/min. ^c) Note regarding the determination of the retention time and mass detection: Instrument: Waters ACQUITY SQD UPLC system; column. Waters Acquity UPLC HSS T3 1.8μ 50×1 mm; mobile phase A: 1 l of water+0.25 ml of 99% strength formic acid, mobile phase B: 1 l of acetonitrile+0.25 ml of 99% strength formic acid; gradient: 0.0 min 90% A→1.2 min 5% A→2.0 min 5% A oven: 50° C.; flow rate: 0.40 ml/min; UV detection: 208-400 nm. ^d) Note regarding the determination of the retention time and mass detection: […] The determination of the given log P values was carried out in accordance with EEC Directive 79/831 Annex V.A8 by HPLC (High Performance Liquid Chromatography) on a reversed-phase column (C18). […] Mass detection is effected by means of an […] system.

Spodoptera frugiperda = Spodoptera frugiperda spray test; type: in vivo; conditions: 500 g/ha, caterpillars on maize leaf discs, after 7 days
Description: Solvent: 78.0 parts by weight of acetone

With `Cn1nc(C(F)(F)C(F)(F)F)c(C(F)(F)F)c1-c1nnc(-c2cccc(C(=O)NC3CC3)c2)s1` [Iaj-1, N-cyclopropyl-3-{5-[1-methyl-3-(pentafluoroethyl)-4-(trifluoromethyl)-1H-pyrazol-5-yl]-1,3,4-thiadiazol-2-yl}benzamide] the efficacy (Phaedon cochleariae; 500 g/ha) was 100% and the chromatographic logP [1] was 3.72.
Molecule `Cn1nc(C(F)(F)C(F)(F)F)c(C(F)(F)F)c1-c1cc(-c2ccc(Cl)c(C(=O)NCC(=O)NCC(F)(F)F)c2)no1` [Iap-6] has an efficacy (Phaedon cochleariae; 100 g/ha) of 100% and a logP [1] of 3.87.
Molecule `Cn1nc(C(F)(F)C(F)(F)F)c(C(F)(F)F)c1-c1ncc(-c2cccc(C(=O)NC3(C#N)CC3)c2)s1` [Iaq-1, N-(1-cyanocyclopropyl)-3-{2-[1-methyl-3-(pentafluoroethyl)-4-(trifluoromethyl)-1H-pyrazol-5-yl]-1,3-thiazol-5-yl}benzamide] has an efficacy (Phaedon cochleariae; 100 g/ha) of 100% and a chromatographic logP [1] of 3.93.
In the case of `Cn1nc(C(F)(F)C(F)(F)F)c(C(F)(F)F)c1-c1ncc(-c2cccc(C(N)=O)c2)s1` [Iaq-2], the logP [1] is reported as 3.38.
Work on `CN(C(=O)c1cccc(-c2cc(-c3c(C(F)(F)F)c(C(F)(F)C(F)(F)F)nn3C)n(C)n2)c1)C1CC1` [Iaw-1, N-cyclopropyl-3-[2,2′-dimethyl-5′-(pentafluoroethyl)-4′-(trifluoromethyl)-2H,2′H-3,3′-bipyrazol-5-yl]-N-methylbenzamide] yielded a chromatographic logP [1] of 3.94.
`CN(C(=O)c1cccc(-c2cc(-c3c(C(F)(F)F)c(C(F)(F)C(F)(F)F)nn3C)nn2C)c1)C1CC1` [Iax-1, N-cyclopropyl-3-[1,2′-dimethyl-5′-(pentafluoroethyl)-4′-(trifluoromethyl)-1H,2′H-3,3′-bipyrazol-5-yl]-N-methylbenzamide] showed an efficacy (Phaedon cochleariae; 100 g/ha) of 100% and a chromatographic logP [1] of 4.13.
For `Cn1nc(C(F)(F)C(F)(F)F)c(C(F)(F)F)c1-c1nc(-c2ccc(Cl)c(C(=O)NCc3ccccc3)c2)ns1` [Ibd-1], the logP [1] was 5.00.
In the case of `Cn1nc(C(F)(F)C(F)(F)F)c(C(F)(F)F)c1-c1nc(-c2ccc(Cl)c(C(=O)Nc3ccc(F)cc3)c2)ns1` [Ibd-2], the logP [1] is reported as 5.17.
For `Cn1nc(C(F)(F)C(F)(F)F)c(C(F)(F)F)c1-c1nc(-c2ccc(Cl)c(C(=O)NC3CC3)c2)ns1` [Ibd-3, 2-chloro-N-cyclopropyl-5-{5-[1-methyl-3-(pentafluoroethyl)-4-(trifluoromethyl)-1H-pyrazol-5-yl]-1,2,4-thiadiazol-3-yl}benzamide], the efficacy (Phaedon cochleariae; 500 g/ha) was 100%.
`Cn1nc(C(F)(F)C(F)(F)F)c(C(F)(F)F)c1-c1noc(-c2ccc(Cl)c(C(=O)NC3CC3)c2)n1` [Ibe-1, 2-chloro-N-cyclopropyl-5-{3-[1-methyl-3-(pentafluoroethyl)-4-(trifluoromethyl)-1H-pyrazol-5-yl]-1,2,4-oxadiazol-5-yl}benzamide] showed an efficacy (Phaedon cochleariae; 500 g/ha) of 100%, an efficacy (Spodoptera frugiperda) of 100% and a chromatographic logP [1] of 4.16.
With `Cn1nc(C(F)(F)C(F)(F)F)c(C(F)(F)F)c1-c1noc(-c2ccc(Cl)c(C(=O)NCc3ccccc3)c2)n1` [Ibe-2] the logP [1] was 4.76.
For `Cn1nc(C(F)(F)C(F)(F)F)c(C(F)(F)F)c1-c1noc(-c2ccc(Cl)c(C(=O)Nc3ccc(F)cc3)c2)n1` [Ibe-3], the efficacy (Phaedon cochleariae; 500 g/ha) was 100% and the logP [1] was 4.91.
`Cn1nc(C(F)(F)C(F)(F)F)c(C(F)(F)F)c1-c1nc(-c2cccc(C(=O)NCc3ccccc3)c2)n[nH]1` [Ibg-1, N-benzyl-3-{5-[1-methyl-3-(pentafluoroethyl)-4-(trifluoromethyl)-1H-pyrazol-5-yl]-1H-1,2,4-triazol-3-yl}benzamide] gave a chromatographic logP [1] of 3.8.
Work on `Cn1nc(C(F)(F)C(F)(F)F)c(C(F)(F)F)c1-c1nc(-c2cccc(C(=O)NC3CC3)c2)n[nH]1` [Ibg-2] yielded a logP [1] of 3.24.
`Cn1nc(C(F)(F)C(F)(F)F)c(C(F)(F)F)c1-c1nc(-c2cccc(C(=O)NCC(F)(F)F)c2)n[nH]1` [Ibg-3] gave a logP [1] of 3.54.
`Cn1nc(-c2ccc(Cl)c(C(=O)NCC(F)(F)F)c2)nc1-c1c(C(F)(F)F)c(C(F)(F)C(F)(F)F)nn1C` [Ibg-4] gave a logP [1] of 4.14.
In the case of `CCn1nc(-c2ccc(Cl)c(C(=O)NCC(F)(F)F)c2)nc1-c1c(C(F)(F)F)c(C(F)(F)C(F)(F)F)nn1C` [Ibg-6], the logP [1] is reported as 4.41.
Molecule `Cn1nc(-c2ccc(Cl)c(C(=O)NC3CC3)c2)nc1-c1c(C(F)(F)F)c(C(F)(F)C(F)(F)F)nn1C` [Ibg-7] has an efficacy (Phaedon cochleariae; 500 g/ha) of 100% and a logP [1] of 3.80.
For `CC(C)n1nc(-c2ccc(Cl)c(C(=O)NCc3ccccc3)c2)nc1-c1c(C(F)(F)F)c(C(F)(F)C(F)(F)F)nn1C` [Ibg-8], the efficacy (Phaedon cochleariae; 500 g/ha) was 100% and the logP [1] was 4.93.
In the case of `CCn1nc(-c2ccc(Cl)c(C(=O)NCc3ccccc3)c2)nc1-c1c(C(F)(F)F)c(C(F)(F)C(F)(F)F)nn1C` [Ibg-9], the efficacy (Phaedon cochleariae; 500 g/ha) is reported as 100% and the logP [1] is reported as 4.71.
Molecule `Cn1nc(-c2ccc(Cl)c(C(=O)NCc3ccccc3)c2)nc1-c1c(C(F)(F)F)c(C(F)(F)C(F)(F)F)nn1C` [Ibg-10] has a logP [1] of 4.43.
Work on `CC(C)n1nc(-c2ccc(Cl)c(C(=O)Nc3ccccc3)c2)nc1-c1c(C(F)(F)F)c(C(F)(F)C(F)(F)F)nn1C` [Ibg-11] yielded a logP [1] of 5.13.
With `CCn1nc(-c2ccc(Cl)c(C(=O)Nc3ccccc3)c2)nc1-c1c(C(F)(F)F)c(C(F)(F)C(F)(F)F)nn1C` [Ibg-12] the logP [1] was 4.85.
With `CC(C)n1nc(-c2ccc(Cl)c(C(=O)NC3CC3)c2)nc1-c1c(C(F)(F)F)c(C(F)(F)C(F)(F)F)nn1C` [Ibg-13] the efficacy (Phaedon cochleariae; 500 g/ha) was 100% and the logP [1] was 4.35.
With `Cn1nc(-c2ccc(Cl)c(C(=O)Nc3ccccc3)c2)nc1-c1c(C(F)(F)F)c(C(F)(F)C(F)(F)F)nn1C` [Ibg-14] the logP [1] was 4.56.
`Cn1nc(-c2cccc(C(=O)NCc3ccccc3)c2)nc1-c1c(C(F)(F)F)c(C(F)(F)C(F)(F)F)nn1C` [Ibg-15, N-benzyl-3-{1-methyl-5-[1-methyl-3-(pentafluoroethyl)-4-(trifluoromethyl)-1H-pyrazol-5-yl]-1H-1,2,4-triazol-3-yl}benzamide] gave a chromatographic logP [1] of 4.24.
Molecule `Cn1nc(-c2c(C(F)(F)F)c(C(F)(F)C(F)(F)F)nn2C)nc1-c1cccc(C(=O)NCc2ccccc2)c1` [Ibh-2, N-benzyl-3-{1-methyl-3-[1-methyl-3-(pentafluoroethyl)-4-(trifluoromethyl)-1H-pyrazol-5-yl]-1H-1,2,4-triazol-5-yl}benzamide] has a chromatographic logP [1] of 4.16.
In the case of `CCn1nc(-c2c(C(F)(F)F)c(C(F)(F)C(F)(F)F)nn2C)nc1-c1ccc(Cl)c(C(=O)NCC(F)(F)F)c1` [Ibh-5], the efficacy (Phaedon cochleariae; 500 g/ha) is reported as 100% and the logP [1] is reported as 4.32.
Work on `CC(C)n1nc(-c2c(C(F)(F)F)c(C(F)(F)C(F)(F)F)nn2C)nc1-c1ccc(Cl)c(C(=O)NC2CC2)c1` [Ibh-6] yielded an efficacy (Phaedon cochleariae; 500 g/ha) of 100% and a logP [1] of 4.39.
Work on `CC(C)n1nc(-c2c(C(F)(F)F)c(C(F)(F)C(F)(F)F)nn2C)nc1-c1ccc(Cl)c(C(=O)NCC(F)(F)F)c1` [Ibh-7] yielded a logP [1] of 4.68.
With `Cn1nc(-c2c(C(F)(F)F)c(C(F)(F)C(F)(F)F)nn2C)nc1-c1ccc(Cl)c(C(=O)NC2CC2)c1` [Ibh-8] the efficacy (Phaedon cochleariae; 500 g/ha) was 100%, the efficacy (Spodoptera frugiperda) was 83% and the logP [1] was 3.67.
`CC(C)n1nc(-c2c(C(F)(F)F)c(C(F)(F)C(F)(F)F)nn2C)nc1-c1ccc(Cl)c(C(=O)NCc2ccccc2)c1` [Ibh-9] showed a logP [1] of 4.98.
Molecule `CCn1nc(-c2c(C(F)(F)F)c(C(F)(F)C(F)(F)F)nn2C)nc1-c1ccc(Cl)c(C(=O)NCc2ccccc2)c1` [Ibh-10] has a logP [1] of 4.59.
For `Cn1nc(-c2c(C(F)(F)F)c(C(F)(F)C(F)(F)F)nn2C)nc1-c1ccc(Cl)c(C(=O)NCc2ccccc2)c1` [Ibh-11], the logP [1] was 4.29.
Molecule `CC(C)n1nc(-c2c(C(F)(F)F)c(C(F)(F)C(F)(F)F)nn2C)nc1-c1ccc(Cl)c(C(=O)Nc2ccccc2)c1` [Ibh-12] has a logP [1] of 5.23.
For `CCn1nc(-c2c(C(F)(F)F)c(C(F)(F)C(F)(F)F)nn2C)nc1-c1ccc(Cl)c(C(=O)Nc2ccccc2)c1` [Ibh-13], the logP [1] was 4.73.
With `Cn1nc(-c2c(C(F)(F)F)c(C(F)(F)C(F)(F)F)nn2C)nc1-c1ccc(Cl)c(C(=O)Nc2ccccc2)c1` [Ibh-14] the logP [1] was 4.42.
`Cn1nc(C(F)(F)C(F)(F)F)c(C(F)(F)F)c1-c1nnc(-c2ccc(Cl)c(C(=O)NCc3ccccc3)c2)[nH]1` [Ibi-1] gave a logP [1] of 4.00.
Molecule `Cn1nc(C(F)(F)C(F)(F)F)c(C(F)(F)F)c1-c1nnc(-c2ccc(Cl)c(C(=O)NCC(F)(F)F)c2)[nH]1` [Ibi-2] has a logP [1] of 3.73.
In the case of `Cn1nc(C(F)(F)C(F)(F)F)c(C(F)(F)F)c1-c1nnc(-c2ccc(Cl)c(C(=O)NC3CC3)c2)[nH]1` [Ibi-3], the logP [1] is reported as 3.40.
Molecule `Cn1nc(C(F)(F)C(F)(F)F)c(C(F)(F)F)c1-c1nnc(-c2ccc(Cl)c(C(=O)Nc3ccccc3)c2)[nH]1` [Ibi-4] has a logP [1] of 4.13.

From patent publication US10047076B2, “Halogen-substituted compounds” (BAYER CROPSCIENCE AKTIENGESELLSCHAFT, priority 2014, dated 2018)
